Laboratory results reported in patent publication US20150143553A1, “Methods And Compositions Comprising A Drosophila Model Of Amyotrophic Lateral Sclerosis” (priority 2013, published 2015).
Where a name gives a salt, the structure may show the parent alone.

system: Drosophila larvae expressing wild-type TDP-43 in motor neurons; experiment: Drug screen: rescue of lethality caused by wild-type TDP-43 expression in motor neurons (D42 Gal4); assay type: in vivo; settings: transgene WT2; 30 μM in fly food
Description: […] Larvae expressing TDP-43 (wild type or mutant, as shown) are raised on drug containing food.
[…] Larvae expressing TDP-43 (wt or mutant) were raised on drug containing food.
Using a Drosophila model of ALS based on TDP-43 that recapitulates several aspects of the disease pathophysiology (33, 35), a drug screen aimed at identifying FDA approved compounds with neuroprotective potential in vivo were designed (FIG. 37A). […] This phenotype was used to screen for drug candidates with therapeutic potential as determined by their ability to rescue pupal lethality and produce viable adults with extended wings (FIG. 37A). […]
UAS TDP-43 males were crossed with D42-Gal4 female virgins on fly food containing either DMSO or pioglitazone. For DMSO controls, the same volume of DMSO as the corresponding drug concentration was added. Bromophenol blue was added to a final concentration of approximately 0.02% to ensure homogeneity. Crosses were made on drug food with 3 female virgins and 2 males in each vial, and were maintained at 25° C. unless noted. The parents were discarded after 5-7 days then the vials were screened for adult progeny with straight wings from day 14 to day 25. All adults were screened for TDP-43 expression by visualizing the YFP tag. Total number of pupae was counted on day 25. Percent survival was calculated using the formula (total number of straight-winged adults/total number of pupae)×100. All experiments were performed in triplicate.

Row | Compound | Preliminary rescue result: adults with normal wings
1 | CCCCc1ccc2[nH]c(NC(=O)OC)nc2c1 [Parbendazole] | 2/1
2 | CCOC(=O)O[C@]1(C(=O)COC(=O)CC)CC[C@H]2[C@@H]3CCC4=CC(=O)C=C[C@]4(C)[C@H]3[C@@H](O)C[C@@]21C [Prednicarbate] | 2 Adult Normal Wings Adults
3 | COc1cc2nc(N3CCN(C(=O)C4COc5ccccc5O4)CC3)nc(N)c2cc1OC (centres unmarked) [Doxazosin Mesylate] | 1 Adult Normal Wings Adults
4 | COc1cc2nc(N3CCN(C(=O)C4CCCO4)CC3)nc(N)c2cc1OC.Cl (centres unmarked) [Terazosin HC1] | 3 Adult Normal Wings Adults
5 | CCC(=O)OCC(=O)[C@@]1(OC(=O)CC)[C@H](C)C[C@H]2[C@H]3[C@H]([C@@H](O)C[C@@]21C)[C@@]1(C)C=CC(=O)C=C1C[C@H]3Cl [Alclometasone Dipropionate] | 2 Adult Normal Wings Adults
6 | CN(C)CCOc1ccc(/C(=C(/CCCl)c2ccccc2)c2ccccc2)cc1 [Toremifene] | 1 Adult Normal Wings Adults
7 | CN1[C@@H]2CC[C@H]1C[C@@H](OC(c1ccccc1)c1ccccc1)C2 [Benztropine Mesylate] | 2 Adult Normal Wings Adults
8 | Nc1ccc(/N=N/c2ccccc2)c(N)n1 [Phenazopyridine Hydrochloride] | 1 Adult Normal Wings Adults
9 | CCCNC(C)(C)COC(=O)c1ccccc1 [Meprylcaine HCl] | 1 Adult Normal Wings Adults
10 | COc1ccccc1OCCNCC(O)COc1cccc2[nH]c3ccccc3c12 (centres unmarked) [Carvedilol] | 1 Adult Normal Wings Adults
11 | COc1ccc(C2CNC(=O)C2)cc1OC1CCCC1 (centres unmarked) [Rolipram] | 1 Adult Normal Wings Adults
12 | C[C@H](CCC(=O)O)[C@H]1CC[C@H]2[C@@H]3CC[C@@H]4C[C@H](O)CC[C@]4(C)[C@H]3CC[C@]12C [Lithocholic Acid] | 7 Adult Normal Wings Adults
13 | CO[C@@]1(NC(=O)Cc2cccs2)C(=O)N2C(C(=O)O)=C(COC(N)=O)CS[C@@H]21 [Cefoxitin Sodium Salt] | 1 Adult Normal Wings Adults
14 | C[C@]12CC[C@H]3[C@@H](CCC4=CC(=O)CC[C@@]43C)[C@@H]1CC[C@@H]2C(=O)CO [Deoxycorticosterone] | 1 Adult Normal Wings Adults
15 | CCN(CC)CCOC(=O)C(c1ccccc1)C1CCCCC1 (centres unmarked) [Drofenine HCl] | 1 Adult Normal Wings Adults
16 | Cn1cc[nH]c1=S [Methimazole] | 1 Adult Normal Wings Adults
17 | CC(C)(C(=O)O)c1ccc(C(O)CCCN2CCC(C(O)(c3ccccc3)c3ccccc3)CC2)cc1 (centres unmarked) [Fexofenadine Hcl] | 1 Adult Normal Wings Adults
18 | CCC(=O)[C@@]1(C)[C@H](C)C[C@H]2[C@@H]3CCC4=CC(=O)C=C[C@]4(C)[C@H]3[C@@H](O)C[C@@]21C [Rimexolone] | 1 Adult Normal Wing Adults
19 | CC1(C)[C@H](C(=O)O)N2C(=O)C[C@H]2S1(=O)=O [Sulbactam] | 1 Adult Normal Wings Adults
20 | CC(C)c1c(C(=O)Nc2ccccc2)c(-c2ccccc2)c(-c2ccc(F)cc2)n1CC[C@@H](O)C[C@@H](O)CC(=O)O [Atorvastatin] | 1 Adult Normal Wings Adults

Row | Compound | Preliminary rescue result: adults with normal wings
21 | CCCCC(CC)CNC(=N)NC(=N)NCCCCCCNC(=N)NC(=N)NCC(CC)CCCC (centres unmarked) [Alexidine Dihydrochloride] | 6 Adults Normal Wings
22 | Cn1nnnc1SCC1=C(C(=O)[O-])N2C(=O)[C@@H](NC(=O)[C@H](O)c3ccccc3)[C@H]2SC1.[Na+] [Cefamandole Na Salt] | 2/3 Adult Normal Wing
23 | CCCCNc1c(C(=O)OCC)c(C)nc2c1cnn2CC [Tracazolate Hydrochloride] | 1 Adult Normal Wings Adults
24 | CC(C)(C)NC[C@H](O)COc1ccccc1C1CCCC1 [Penbutolol Sulfate] | 1 Adult Normal Wings Adults
25 | CN1CCN(c2c(F)cc3c(=O)c(C(=O)O)cn4c3c2SCC4)CC1 [Rufloxacin] | 1 Adult Normal Wings Adults
26 | NS(=O)(=O)c1cc2c(cc1Cl)NC(CC1CCCC1)NS2(=O)=O (centres unmarked) [Cyclopenthiazide] | 1 Adult Normal Wings Adults
27 | Verteporfin | 1 Adult Normal Wings Adults
28 | C[C@H](CCC(=O)O)[C@H]1CC[C@H]2[C@@H]3[C@@H](O)C[C@@H]4C[C@H](O)CC[C@]4(C)[C@H]3CC[C@]12C [Urosiol] | 2 Adult Normal Wings Adults
29 | CC(C(=O)[O-])c1cccc(Oc2ccccc2)c1.CC(C(=O)[O-])c1cccc(Oc2ccccc2)c1.O.O.[Ca+2] (centres unmarked) [Fenoprofen Ca Salt Dihydrate] | 2 Adult Normal Wings Adults
30 | CCCc1nc2c(C)cc(-c3nc4ccccc4n3C)cc2n1Cc1ccc(-c2ccccc2C(=O)O)cc1 [′Telmisartan] | 2/2 Adult Normal Wings
31 | O=C(O)Cc1ccc(-c2ccccc2)cc1 [Felbinac] | 1 Adult Normal Wings Adults
32 | CC(=O)OCC(=O)[C@@]12OC3(CCCC3)O[C@@H]1C[C@H]1[C@@H]3CCC4=CC(=O)C=C[C@]4(C)[C@@]3(F)[C@@H](O)C[C@@]12C [Amcinonide] | 1/1
33 | NS(=O)(=O)c1cc(Cl)c(Cl)c(S(N)(=O)=O)c1 [Dichlorphenamide] | 2 Adult Normal Wings Adults
34 | NC(=O)C(c1ccccc1)(c1ccccc1)[C@@H]1CCN(CCc2ccc3c(c2)CCO3)C1 [Darifenacin Hydrobromide] | 3 Adult Normal Wings Adults
35 | C=CCOc1ccccc1OCC(O)CNC(C)C (centres unmarked) [Oxprenolol Hcl] | 1 Adult Normal Wings Adults
36 | CCOC(=O)[C@H](CCc1ccccc1)N[C@@H](C)C(=O)N1[C@H](C(=O)O)C[C@@H]2CCC[C@@H]21 [Ramipril] | 1 Adult Normal Wings Adults
37 | O=c1cc(-c2ccc(O)c(O)c2)oc2cc(O)cc(O)c12 [Luteolin] | 1 Adult Normal Wings Adults
38 | CCCCC(=O)O[C@H]1CC[C@H]2[C@@H]3CCc4cc(O)ccc4[C@H]3CC[C@]12C [Estradiol Valerate] | 1 Adult Normal Wings Adults
39 | CC(C)(Oc1ccc(Cl)cc1)C(=O)O [Clofibric Acid] | 2 Adult Normal Wings Adults

same assay, conditions: transgene WT2; 50 μM in fly food

Row | Compound | Preliminary rescue result: adults with normal wings
40 | COc1cc(NC(C)CCCN)c2ncccc2c1 (centres unmarked) [Primaquine Diphosphate] | 1 Adult Normal Wings Adults
41 | CCN1CCCC1CNC(=O)c1cc(S(N)(=O)=O)ccc1OC (centres unmarked) [Sulpiride] | 1 Adult Normal Wings Adults
42 | CCN1CCC[C@H]1CNC(=O)c1c(O)c(Cl)cc(Cl)c1OC [Raclopride] | 2 Adults Normal Wings
43 | COC(c1ccccc1)(c1ccccc1)[C@H](Oc1nc(C)cc(C)n1)C(=O)O [Amrisentan] | 1 Adult Normal Wings Adults
44 | CN[C@@H]1[C@@H](O)[C@@H](O[C@@H]2[C@@H](O)[C@H](O[C@H]3OC(CN)=CC[C@H]3N)[C@@H](N)C[C@H]2N)OC[C@]1(C)O [Sisomicin Sulfate] | 1 Adult Normal Wings Adults
45 | CN(C)CC/C=C1/c2ccccc2Sc2ccc(Cl)cc21 [Chlorprothixene] | 3 Adults Normal Wings
46 | CCN(C(C)=O)c1cccc(-c2ccnc3c(C#N)cnn23)c1 [Zaleplon] | 1 Adult Normal Wings Adults
47 | O=C(COc1ccc(Cl)cc1)N1CCN(Cc2ccc3c(c2)OCO3)CC1 [Fipexide Hydrochloride] | 1 Adult Normal Wings Adults
48 | CCCCCCCCNC(C)C(O)c1ccc(SC(C)C)cc1 (centres unmarked) [Suloctidil] | 6 Adults Normal Wings
49 | CC(C(=O)O)c1cccc(C(=O)c2ccccc2)c1 (centres unmarked) [Ketoprofen] | 1 Adult Normal Wings Adults
50 | C#CCN(C)Cc1ccccc1 [Pargyline Hydrochloride] | 1 Adult Normal Wings Adults
51 | Nc1ccc(S(N)(=O)=O)cc1 [Sulfanilamide] | 1 Adult Normal Wings Adults
52 | Cc1ccc(-c2cc(C(F)(F)F)nn2-c2ccc(S(N)(=O)=O)cc2)cc1 [Celecoxib] | 1 Adult Normal Wings Adults
53 | CC(=O)Nc1c(I)c(C(=O)N[C@H]2C(O)O[C@H](CO)[C@@H](O)[C@@H]2O)c(I)c(N(C)C(C)=O)c1I (some centres unmarked) [Metrizamide] | 2 Adults Normal Wings
54 | Cc1onc(-c2c(Cl)cccc2Cl)c1C(=O)N[C@@H]1C(=O)N2[C@@H]1SC(C)(C)[C@@H]2C(=O)O [Dicloxacillin Sodium Salt] | 1 Adult Normal Wings Adults
55 | C=CCC1(CC(C)C)C(=O)NC(=O)NC1=O [Butalbital] | 1 Adult Normal Wings Adults
56 | CN(C)C(=O)Oc1cccc([N+](C)(C)C)c1 [Neostigmine Bromide] | 5 Adults Straight Wings
